{"source": "patent US20170290774A1", "about": "“NEUROKININ-1 RECEPTOR ANTAGONIST COMPOSITION FOR TREATMENT OF DISEASES AND CONDITIONS OF THE RESPIRATORY TRACT” (PLUS VITECH, S.L., priority 2014, published 2017)", "key": {"[1]": {"assay": "Saturation concentration of NK1 receptor antagonists in olive oil", "format": "physicochemical", "settings": "25° C.", "procedure": "(§1) Each of said mixtures was continuously and gently stirred for 10 minutes at ambient temperature (25° C.) and then maintained at rest for 60 minutes. The saturation concentration was considered to be that which was immediately lower in the aforementioned series than a concentration where deposition was observed, but in which no deposition of the active ingredient was observed."}, "[2]": {"assay": "Saturation concentration in olive oil:ethanol (9:1)", "format": "physicochemical", "settings": "25° C.", "procedure": "as §1, with “less” for “lower in the aforementioned series”"}, "TGFβ3": {"tested_on": "TGFβ3", "assay": "Immunohistochemistry of TGFβ3 in respiratory tract tissue of sodium hypochlorite aerosol-treated rabbits", "format": "in vivo, New Zealand albino rabbits", "source_text": "It is known that the factors TGF-α, TGF-β 1, TGF-β 2, TGF-β 3, SPARC, MMP-3; MMP-7, MMP-9, MMP-11, MMP-13 and MMP-14, TGF-β, NF-kB, EGF, MMP-9, VEGF and TNF-α which are produced by lung cells (pneumocytes, fibroblasts and vascular endothelial cells) and inflammatory cells (macrophages, lymphocytes and polymorphonuclear leukocytes) are involved in the pathophysiology and development of said respiratory tract diseases. […] Herein, 27 New Zealand albino rabbits (New Zealand White Rabbit) with an initial average weight about 3 kg were used in this example. All subjects were administered an aerosol of a solution consisting of a mixture of water and sodium hypochlorite (35 g sodium hypochlorite per liter of water) at a rate of 5 mL of said solution by inhalation three times a day for 7 days (days 1 to 7 of experimentation). Subsequently, from days 3 to 7, a group of 3 rabbits (Group 1) was administered an oral dose of 10 mg/kg body weight per day, another group of 3 rabbits (Group 2) was administered an oral dose of 40 mg/kg body weight per day, a third group (Group 3) was administered an oral dose of 80 mg/kg body weight per day and a fourth group (Group 4) was administered an oral dose of 100 mg/kg body weight per day. […] This mixture was administered as an aerosol by inhalation, also from days 3 to 7, to a group of 3 rabbits (group 5) at a dose of 0.05 mg/kg body weight per day, to another group of three rabbits (Group 6) at a dose of 0.1 mg/kg body weight per day, to another group of three rabbits (Group 7) at a dose of 0.2 mg/kg body weight per day and to another group of three rabbits (Group 8) at a dose of 0.4 mg/kg body weight per day. A placebo consisting only of olive oil was administered from days 3 to 7 to a control group of 3 rabbits (placebo group). In parallel, 3 rabbits were kept under identical conditions but were not administered any treatment nor the aforementioned sodium hypochlorite solution (control group). […] On day 7 of the experiment all animals were euthanized and necropsied. […] Samples were taken at the peripheral level of the lung parenchyma, just below the pleural surface. Tissue samples were also taken from the nasal cavity, pharynx, larynx and bronchi. Immunohistochemistry studies were performed for all samples to evaluate the levels of the markers TGF-α, TGF-β 1, TGF-β 2, TGF-β 3 SPARC, MMP-3; MMP-7, MMP-9, MMP-11, MMP-14, TGF-β, TNF-α and VEGF. In said immunohistochemistry studies, a sample of each sample was dehydrated by treatment with increasing concentrations of ethanol and finally xylene. Subsequently said dried samples were embedded in paraffin, thus creating a block. Said paraffin blocks were cut on a microtome to a thickness of 5 μm, and the resulting sections (slices) were placed on slides suitable for conducting immunohistochemistry techniques. Subsequently, the sections were deparaffinised by immersion in xylene and then rehydrated through immersion in a series of solutions containing decreasing concentrations of ethanol and, finally, water. […] The samples were then allowed to cool to room temperature over 10 minutes. Endogenous peroxidase activity was blocked by treatment with 3% hydrogen peroxide over 30 min at room temperature. […] In order to verify the expression of NK1 receptors, the cell samples were incubated in the presence of anti-NK1 antibodies ([…], Sigma-Aldrich) diluted 1:1000 at 4° C. overnight. After this time they were washed in 0.05M Tris buffer at room temperature. Subsequently, Envision System-HRP (Dako) reagents were added for 30 min at room temperature. Once this time had expired, the samples were again washed with 0.05 M Tris buffer, and immunoreactivity was visualized by light microscopy with a chromogenic solution with 3,3'-diaminobenzidine (DAB+; Dako, USA). In order to differentiate the cell nuclei, these were lightly stained with haematoxylin. Samples that were not incubated with the primary antibody, but wherein this was replaced by a non-immune serum were used as negative controls. […]"}, "CYP3A4": {"target": "T1, CYP3A4 (Homo sapiens, UniProt P08684)", "T1 construct": "In vitro studies in which human hepatic microsomes were used; from tissue; host or cells: human hepatic (liver) microsomes", "T1 sequence (P08684 whole entry)": "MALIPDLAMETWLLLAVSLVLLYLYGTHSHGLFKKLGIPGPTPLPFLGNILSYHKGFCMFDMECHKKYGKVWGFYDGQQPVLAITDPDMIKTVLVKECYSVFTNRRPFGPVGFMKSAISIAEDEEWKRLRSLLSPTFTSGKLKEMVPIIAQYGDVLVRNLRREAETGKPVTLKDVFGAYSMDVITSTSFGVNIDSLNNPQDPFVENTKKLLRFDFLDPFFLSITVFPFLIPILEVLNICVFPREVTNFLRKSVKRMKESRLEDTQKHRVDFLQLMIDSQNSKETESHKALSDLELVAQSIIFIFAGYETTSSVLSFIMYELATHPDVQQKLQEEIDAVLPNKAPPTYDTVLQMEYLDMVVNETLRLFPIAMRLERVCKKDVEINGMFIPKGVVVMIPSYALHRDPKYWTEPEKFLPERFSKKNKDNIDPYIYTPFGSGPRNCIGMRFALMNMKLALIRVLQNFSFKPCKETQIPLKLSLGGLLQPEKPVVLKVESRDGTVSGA", "settings": "human hepatic microsomes; cited from earlier work"}}, "data": [{"molecule": "C[C@@H](OC1OCCN(Cc2nc(=O)[nH][nH]2)C1c1ccc(F)cc1)c1cc(C(F)(F)F)cc(C(F)(F)F)c1", "note": "(stereo in doubt) [Aprepitant, 5-([(2R,3S)-2-((R)-1-[3,5-bis(trifluoromethyl)phenyl]ethoxy)-3-(4-fluorophenyl)morpholino]methyl)-1H-1,2,4-triazol-3(2H)-one]", "values": [{"measurement": "Saturation concentration", "setting": "[1]", "value": 60, "unit": "nM"}, {"measurement": "Saturation concentration", "setting": "[2]", "value": 80, "unit": "nM"}, {"measurement": "Percent increase in TGFβ3 with respect to the control group", "setting": "TGFβ3; bronchial tissue, Group 1, oral 10 mg/kg per day", "value": 672.56, "unit": "%"}, {"measurement": "Percent increase in TGFβ3 with respect to the control group", "setting": "TGFβ3; bronchial tissue, Group 2, oral 40 mg/kg per day", "value": 452.45, "unit": "%"}, {"measurement": "Percent increase in TGFβ3 with respect to the control group", "setting": "TGFβ3; bronchial tissue, Group 3, oral 80 mg/kg per day", "value": 345.32, "unit": "%"}, {"measurement": "Percent increase in TGFβ3 with respect to the control group", "setting": "TGFβ3; bronchial tissue, Group 4, oral 100 mg/kg per day", "value": 236.12, "unit": "%"}, {"measurement": "% Med G5/C: percent increase in marker TGFβ with respect to the control group", "setting": "TGFβ3; bronchial tissue, Group 5", "value": 604.34, "unit": "%"}, {"measurement": "% Med G6/C: percent increase in marker TGFβ with respect to the control group", "setting": "TGFβ3; bronchial tissue, Group 6", "value": 439.53, "unit": "%"}, {"measurement": "% Med G7/C: percent increase in marker TGFβ with respect to the control group", "setting": "TGFβ3; bronchial tissue, Group 7", "value": 234.56, "unit": "%"}, {"measurement": "% Med G8/C: percent increase in marker TGFβ with respect to the control group", "setting": "TGFβ3; bronchial tissue, Group 8", "value": 179.19, "unit": "%"}, {"measurement": "Percent increase in TGFβ3 with respect to the control group", "setting": "TGFβ3; laryngeal tissue, Group 1, oral 10 mg/kg per day", "value": "1,234.56%"}, {"measurement": "Percent increase in TGFβ3 with respect to the control group", "setting": "TGFβ3; laryngeal tissue, Group 2, oral 40 mg/kg per day", "value": "1,009.78%"}, {"measurement": "Percent increase in TGFβ3 with respect to the control group", "setting": "TGFβ3; laryngeal tissue, Group 3, oral 80 mg/kg per day", "value": 899.98, "unit": "%"}, {"measurement": "Percent increase in TGFβ3 with respect to the control group", "setting": "TGFβ3; laryngeal tissue, Group 4, oral 100 mg/kg per day", "value": 567.89, "unit": "%"}, {"measurement": "Percent increase in TGFβ3 with respect to the control group", "setting": "TGFβ3; laryngeal tissue, Group 5, inhalation 0.05 mg/kg per day", "value": "1,183.45%"}, {"measurement": "Percent increase in TGFβ3 with respect to the control group", "setting": "TGFβ3; laryngeal tissue, Group 6, inhalation 0.1 mg/kg per day", "value": 702.33, "unit": "%"}, {"measurement": "Percent increase in TGFβ3 with respect to the control group", "setting": "TGFβ3; laryngeal tissue, Group 7, inhalation 0.2 mg/kg per day", "value": 305.32, "unit": "%"}, {"measurement": "Percent increase in TGFβ3 with respect to the control group", "setting": "TGFβ3; laryngeal tissue, Group 8, inhalation 0.4 mg/kg per day", "value": 132.22, "unit": "%"}, {"measurement": "Percent increase in TGFβ3 with respect to the control group", "setting": "TGFβ3; lung tissue, Group 1, oral 10 mg/kg per day", "value": 835.84, "unit": "%"}, {"measurement": "Percent increase in TGFβ3 with respect to the control group", "setting": "TGFβ3; lung tissue, Group 2, oral 40 mg/kg per day", "value": 655.71, "unit": "%"}, {"measurement": "Percent increase in TGFβ3 with respect to the control group", "setting": "TGFβ3; lung tissue, Group 3, oral 80 mg/kg per day", "value": 496.55, "unit": "%"}, {"measurement": "Percent increase in TGFβ3 with respect to the control group", "setting": "TGFβ3; lung tissue, Group 4, oral 100 mg/kg per day", "value": 374.47, "unit": "%"}, {"measurement": "Percent increase in TGFβ3 with respect to the control group", "setting": "TGFβ3; lung tissue, Group 5, inhalation 0.05 mg/kg per day", "value": 775.37, "unit": "%"}, {"measurement": "Percent increase in TGFβ3 with respect to the control group", "setting": "TGFβ3; lung tissue, Group 6, inhalation 0.1 mg/kg per day", "value": 427.90, "unit": "%"}, {"measurement": "Percent increase in TGFβ3 with respect to the control group", "setting": "TGFβ3; lung tissue, Group 7, inhalation 0.2 mg/kg per day", "value": 215.59, "unit": "%"}, {"measurement": "Percent increase in TGFβ3 with respect to the control group", "setting": "TGFβ3; lung tissue, Group 8, inhalation 0.4 mg/kg per day", "value": 169.46, "unit": "%"}, {"measurement": "Percent increase in TGFβ3 with respect to the control group", "setting": "TGFβ3; nasal cavity tissue, Group 1, oral 10 mg/kg per day", "value": "2,813.99%"}, {"measurement": "Percent increase in TGFβ3 with respect to the control group", "setting": "TGFβ3; nasal cavity tissue, Group 2, oral 40 mg/kg per day", "value": "2,128.24%"}, {"measurement": "Percent increase in TGFβ3 with respect to the control group", "setting": "TGFβ3; nasal cavity tissue, Group 3, oral 80 mg/kg per day", "value": "1,451.25%"}, {"measurement": "Percent increase in TGFβ3 with respect to the control group", "setting": "TGFβ3; nasal cavity tissue, Group 4, oral 100 mg/kg per day", "value": "1,188.89%"}, {"measurement": "Percent increase in TGFβ3 with respect to the control group", "setting": "TGFβ3; nasal cavity tissue, Group 5, inhalation 0.05 mg/kg per day", "value": "2,168.67%"}, {"measurement": "Percent increase in TGFβ3 with respect to the control group", "setting": "TGFβ3; nasal cavity tissue, Group 6, inhalation 0.1 mg/kg per day", "value": "1,051.06%"}, {"measurement": "Percent increase in TGFβ3 with respect to the control group", "setting": "TGFβ3; nasal cavity tissue, Group 7, inhalation 0.2 mg/kg per day", "value": 482.03, "unit": "%"}, {"measurement": "Percent increase in TGFβ3 with respect to the control group", "setting": "TGFβ3; nasal cavity tissue, Group 8, inhalation 0.4 mg/kg per day", "value": 158.62, "unit": "%"}, {"measurement": "Percent increase in TGFβ3 with respect to the control group", "setting": "TGFβ3; pharyngeal tissue, Group 1, oral 10 mg/kg per day", "value": 967.72, "unit": "%"}, {"measurement": "Percent increase in TGFβ3 with respect to the control group", "setting": "TGFβ3; pharyngeal tissue, Group 2, oral 40 mg/kg per day", "value": 879.34, "unit": "%"}, {"measurement": "Percent increase in TGFβ3 with respect to the control group", "setting": "TGFβ3; pharyngeal tissue, Group 3, oral 80 mg/kg per day", "value": 659.59, "unit": "%"}, {"measurement": "Percent increase in TGFβ3 with respect to the control group", "setting": "TGFβ3; pharyngeal tissue, Group 4, oral 100 mg/kg per day", "value": 456.45, "unit": "%"}, {"measurement": "Percent increase in TGFβ3 with respect to the control group", "setting": "TGFβ3; pharyngeal tissue, Group 5, inhalation 0.05 mg/kg per day", "value": 879.45, "unit": "%"}, {"measurement": "Percent increase in TGFβ3 with respect to the control group", "setting": "TGFβ3; pharyngeal tissue, Group 6, inhalation 0.1 mg/kg per day", "value": 543.45, "unit": "%"}, {"measurement": "Percent increase in TGFβ3 with respect to the control group", "setting": "TGFβ3; pharyngeal tissue, Group 7, inhalation 0.2 mg/kg per day", "value": 309.45, "unit": "%"}, {"measurement": "Percent increase in TGFβ3 with respect to the control group", "setting": "TGFβ3; pharyngeal tissue, Group 8, inhalation 0.4 mg/kg per day", "value": 112.43, "unit": "%"}, {"measurement": "metabolising enzyme", "setting": "CYP3A4", "value": "principally metabolized by CYP3A4"}]}]}
